Reference: patent US20100062997A1, “USE OF IDRAPARINUX FOR EXTENDED PROPHYLAXIS OF THROMBOEMBOLISM” (SANOFI-AVENTIS, priority 2008, published 2010)

How the values were obtained:
[1] = system: patients with confirmed, symptomatic DVT or PE treated for 6 months with a VKA or idraparinux; assay: Double-blind, placebo-controlled study of 6 months extended thromboprophylaxis: symptomatic recurrent VTE; format: in vivo
Experimental: (§1) A double-blind, placebo-controlled study evaluated patients who had completed 6 months of initial treatment for deep venous thrombosis (hereafter “DVT”) or pulmonary embolism (hereafter “PE”) and who were then randomly assigned to receive an additional 6 months of prophylaxis with idraparinux. The efficacy of this method of thromboprophylaxis was evaluated in these patients.
Eligible patients were those aged above or equal to 18 years, with confirmed, symptomatic DVT or PE and who had been treated for 6 months with a VKA (acenocoumarol or warfarin), either in previous van Gogh studies (see The van Gogh Investigators, N. Engl. J. Med., 2007, 357, 1094-104) or outside these studies, or with idraparinux (in van Gogh studies).
The diagnostic criteria for DVT were a calf trifurcation or a more proximal vein that were noncompressible on ultrasonography or an intraluminal filling defect on venography. For PE, the diagnostic criteria were an intraluminal filling defect in subsegmental or more proximal pulmonary arteries on spiral computed tomography (CT) or conventional pulmonary angiography, a high-probability finding on a ventilation-perfusion lung scan, or a nondiagnostic finding on a lung scan with objectively documented DVT (H. R. Büller et al., Ann. Intern. Med., 2004, 140, 867-73; The Matisse Investigators, N. Engl. J. Med., 2003, 349, 1695-702).
Patients were ineligible if they met one or more of the following criteria: an indication to continue anticoagulant therapy for the index DVT or PE beyond 6 months, other indications for prophylaxis with a VKA, pregnancy or breast-feeding, a creatinine clearance of less than 10 ml per minute, severe hepatic disease, bacterial endocarditis, active bleeding or a high risk of bleeding, uncontrolled hypertension (systolic blood pressure above 180 mm Hg or diastolic blood pressure above 110 mm Hg), or a life expectancy of less than 3 months.
Patients were randomized, with stratification according to study center and to the anticoagulant treatment received in the 6 months before randomization (idraparinux within the van Gogh studies or VKA within or outside the van Gogh studies). Randomization was to be performed not more than 1 hour before the administration of the first dose of the study drug.
(§2) Patients received a once-weekly subcutaneous dose of 2.5 mg of idraparinux or placebo with an identical appearance for 6 months (26 injections). In patients who had received idraparinux before randomization, the first dose of idraparinux or placebo was given 6 to 8 days after the last injection of the drug. In patients who had received a VKA before randomization, the first dose was given when the international normalized ratio (INR) was 3.0 or less. For patients with a creatinine clearance of less than 30 ml/min., the weekly idraparinux dose was 1.5 mg, with a first dose of 2.5 mg in patients who had received a VKA before randomization.
All patients were contacted after 1 week and at 3 and 6 months. […] At each contact, symptoms and signs of recurrent VTE were investigated.
All suspected outcome events were reviewed and classified by a central adjudication committee, whose members were unaware of study-group assignment.
The primary efficacy outcome was the incidence of symptomatic recurrence of VTE, defined as objectively documented recurrent PE, DVT or death attributed to PE. A diagnosis of recurrent VTE was accepted in the absence of an adequate objective test result if the investigator had treated the patient with therapeutic doses of heparin for more than 2 days or with a vena cava filter, thrombectomy or thrombolysis, or if recurrent VTE could not be ruled out. […]

[2] = system: patients with confirmed, symptomatic DVT or PE treated for 6 months with a VKA or idraparinux; assay: Same study, principal safety outcome: major bleeding; format: in vivo
Experimental: as §1, §2
The principal safety outcome was major bleeding. […]
Analysis of the primary safety outcome, the incidence of major bleeding at 6 months, was performed with the use of the Mantel-Haenszel test, stratified according to the previous treatment. The effect of initial, prerandomization treatment on efficacy and safety was also analyzed. […]

[3] = idraparinux group, month 6 after randomization, counted in most severe category

CO[C@H]1O[C@H](COS(=O)(=O)O)[C@@H](O[C@@H]2O[C@@H](C(=O)O)[C@@H](O[C@H]3O[C@H](COS(=O)(=O)O)[C@@H](O[C@@H]4O[C@H](C(=O)O)[C@@H](O[C@H]5O[C@H](COS(=O)(=O)O)[C@@H](OC)[C@H](OC)[C@H]5OC)[C@H](OC)[C@H]4OC)[C@H](OS(=O)(=O)O)[C@H]3OS(=O)(=O)O)[C@H](OC)[C@H]2OC)[C@H](OS(=O)(=O)O)[C@H]1OS(=O)(=O)O [Idraparinux, idraparinux]
symptomatic, objectively confirmed VTE (frequency of recurrent thromboembolism) ([1]; idraparinux group, 6 of 594 patients, during the 6 months of randomly assigned treatment): 1.0% | recurrent VTE ([1]; idraparinux group, 7 patients, further 6-month observation period after end of the additional 6 months of thromboprophylaxis, P=0.21 vs placebo): 1.2% | cumulative incidence of recurrent VTE (Kaplan-Meier) ([1]; idraparinux group, 1 year after randomization, P=0.002 vs placebo): 1.7% | Type of recurrent event: DVT only [1, 3]: 3 number of patients | Type of recurrent event: PE fatal [1, 3]: 2 number of patients | Type of recurrent event: PE non fatal [1, 3]: 1 number of patients | reduction in the relative risk of recurrent VTE ([1]; idraparinux vs placebo, 6 months, 95% CI 33.5 to 88.8, P=0.002): 72.7% | Recurrent VTE, Odds Ratio (95% CI) ([1]; idraparinux vs placebo, month 6 after randomization, all patients, adjusted according to treatment history, P 0.002): 0.27 (0.11-0.66) | Recurrent VTE, Odds Ratio (95% CI) ([1]; idraparinux vs placebo, treatment before randomization: VKA outside study, month 6, P 0.004): 0.09 (0.01-0.69) | Recurrent VTE, Odds Ratio (95% CI) ([1]; idraparinux vs placebo, treatment before randomization: VKA within study, month 6, P 0.02): 0.20 (0.04-0.92) | Recurrent VTE, Odds Ratio (95% CI) ([1]; idraparinux vs placebo, treatment received before randomization: VKA, month 6, P <0.001): 0.14 (0.04-0.48) | Recurrent VTE, Odds Ratio (95% CI) ([1]; idraparinux vs placebo, treatment received before randomization: idraparinux, month 6, P 0.68): 1.58 (0.26-9.55) | cumulative incidence of recurrent thromboembolism by treatment received before randomization (FIG. 1) ([1]; placebo group, entire year after randomization, 268 patients who had received idraparinux in the 6 months before randomization): lowest | frequency of recurrence (6-month recurrence rate) after discontinuation ([1]; placebo group, substance = treatment received for 6 months before randomization): less than 1% | major hemorrhage ([2]; idraparinux group, 6 months of treatment, placebo 0%, P<0.001): 1.9% | major bleedings after discontinuation ([2]; placebo group, patients who first received idraparinux, 6 months): without major bleedings
